Laboratory results from paper PMC4535766, “Antiprotozoal Activity Profiling of Approved Drugs: A Starting Point toward Drug Repositioning” (PLoS ONE, 2015).
Where two headings read alike, the source gives them in different places.

Key:
in vitro = conditions: rat
Method: (§1) Drug stock solutions (10mg/ml) were in DMSO (100%). […] Selectivity index (SI) was calculated as IC50 L6 cells/IC50 parasite.

[1] = tested on: T. cruzi, strain Tulahuen C4, intracellular amastigotes; test: microbe, parasite or virus in culture; conditions: Trypanosoma cruzi, TULAHUEN
Method: as §1

[2] = tested on: T. b. rhodesiense strain STIB 900, trypomastigotes; test: In vitro activity against T. b. rhodesiense, serial drug dilution assay; conditions: for IC50: Trypanosoma brucei
Method: as §1

[3] = Cytotoxicity on macrophages infected with L. donovani; type: cell-based, mouse; conditions: mouse
[4] = tested on: axenic amastigotes of L. donovani, strain MHOM-ET-67/L82; test: In vitro activity against L. donovani axenic amastigotes, serial drug dilution assay; type: cell-based, Leishmania donovani; conditions: Leishmania donovani
Method: as §1

[5] = tested on: intracellular amastigotes of L. donovani strain MHOM-ET-67/L82; test: Activity against Leishmania donovani intracellular amastigotes in mouse peritoneal macrophages; conditions: Leishmania donovani, Peritoneal macrophage, in Mus musculus
Method: After 24 h 1.2 x 10^5 amastigote L. donovani in 100 μl were added. The amastigotes were taken from an axenic culture grown at pH 5.4. Four hours later, the medium containing free amastigote forms was removed and replaced by fresh medium. The next day the medium was replaced by medium with or without a serial drug dilution of seven 3-fold dilution steps covering a range from 30 to 0.04 μg/ml. Parasite growth in the presence of the drug was compared to control wells. After 96 h of incubation, the medium was removed and the slides fixed with methanol for 10 min followed by staining with a 10% Giemsa solution. Infected and non-infected macrophages were counted for the control cultures and those exposed to the serial drug dilutions. The infection rates were determined. The results were expressed as a percentage reduction in parasite burden compared to control wells, and the IC50 was calculated by linear regression analysis. The collection of mouse peritoneal macrophages was done at the Swiss Tropical and Public Health Institute (Basel) according to the rules and regulations for the protection of animal rights ("Tierschutzverordnung") of the Swiss "Bundesamt für Veterinärwesen".

P. falciparum strain K1 = test: In vitro activity against P. falciparum, serial drug dilution assay; conditions: for selectivity ratio: rat; for Activity against P. falciparum (in words): in vitro
Method: as §1

[6] = infected macrophages, read-out: Cytotox. mac.inf. IC50
[7] = read-out: L. don. intracell IC50
[8] = Plasmodium falciparum, K1, read-out: IC50 P. falc. K1
[9] = macrophages infected with L. donovani, read-out: IC50 Cytotox. mac.inf.
[10] = axenic amastigotes, strain MHOM-ET-67/L82, means of two independent assays, read-out: IC50 L. don. axen.
[11] = 96 h, read-out: IC50 L. don. intracell
[12] = L. donovani axenic amastigotes, read-out: L. don. axen. IC50
[13] = Plasmodium falciparum, K1, read-out: P. falc. IC50

CCN(CC)CCCC(C)Nc1ccnc2cc(Cl)ccc12 (stereo not drawn) [Chloroquine (Diphosphate), Chloroquine]
IC50 (in vitro): 50.6 µM
IC50 ([1]; read-out: T. cruzi IC50): 99.2 µM
IC50 ([2]; read-out: IC50 T. b. rhod.): 3.81 µM
selectivity ratio ([2]; rat): 13
IC50 at 96 h [3, 6]: > 58.9 µM
IC50 ([4]; read-out: L. don. axen. IC50): > 196 µM
IC50 [5, 7]: > 58.9 µM
IC50 (P. falciparum strain K1; [8]): 0.17 µM
selectivity ratio (P. falciparum strain K1): 298
IC50 (P. falciparum strain K1; read-out: IC50 P. falc. K1): 0.13 µM

CN(C)CCCN1c2ccccc2Sc2ccc(Cl)cc21 [Chlorpromazine]
IC50 (in vitro; IC50 Cytotox. L6): 12.3 µM
IC50 ([1]; read-out: IC50 T. cruzi): 17.2 µM
IC50 ([2]; read-out: IC50 T. b. rhod.): 1.25 µM
IC50 at 96 h [3, 9]: 31.4 µM
IC50 [4, 10]: 48.5 µM
IC50 [5, 11]: > 9.41 µM
IC50 (P. falciparum strain K1; [8]): 3.03 µM

CN/C(=N/CCSCc1nc[nH]c1C)NC#N [Cimetidine]
IC50 (in vitro; IC50 Cytotox. L6): 302 µM
IC50 ([1]; read-out: IC50 T. cruzi): 351 µM
IC50 ([2]; read-out: IC50 T. b. rhod.): > 396 µM
IC50 at 96 h [3, 9]: > 119 µM
IC50 [4, 10]: > 396 µM
IC50 [5, 11]: > 119 µM
IC50 (P. falciparum strain K1; [8]): 29.2 µM

O=C(O)c1cn(C2CC2)c2cc(N3CCNCC3)c(F)cc2c1=O [Ciprofloxacin]
IC50 (in vitro; Cytotox. L6 IC50): 118 µM
IC50 ([1]; read-out: T. cruzi IC50): 92 µM
IC50 ([2]; read-out: T. b. rhod. IC50): 35.9 µM
IC50 at 96 h [3, 6]: > 90.5 µM
IC50 [4, 12]: > 302 µM
IC50 [5, 7]: > 90.5 µM
IC50 (P. falciparum strain K1; [13]): 13.2 µM

Clc1ccc(C(OCCN2CCCCC2)c2ccccc2)cc1 (stereo not drawn) [Cloperastine]
IC50 (in vitro; L6 cells, IC50 Cytotox. L6, L6 cells, means of two independent assays): 43.4 µM
IC50 ([1]; read-out: IC50 T. cruzi): 9.46 µM
IC50 ([2]; read-out: IC50 T. b. rhod.): 4.91 µM
MCC at 96 h ([3]; mouse peritoneal macrophages infected with L. donovani, read-out: IC50 Cytotox. mac.inf.): 90.9 µM
IC50 [4, 10]: 265 µM
IC50 [5, 11]: > 30.3 µM
IC50 (P. falciparum strain K1; [8]): 0.87 µM
Activity against P. falciparum (in words) (P. falciparum strain K1): selective activities
selectivity ratio (P. falciparum strain K1; Selectivity index: IC50 Cytotoxicity L6/ IC50 P. falciparum): 50

C#C[C@]1(O)CC[C@H]2[C@@H]3CCC4=Cc5oncc5C[C@]4(C)[C@H]3CC[C@@]21C [Danazol]
IC50 (in vitro; Cytotox. L6 IC50): 32 µM
IC50 ([1]; read-out: T. cruzi IC50): 6.25 µM
IC50 ([2]; read-out: T. b. rhod. IC50): 45.9 µM
IC50 at 96 h [3, 6]: > 29.6 µM
IC50 [4, 12]: 10.2 µM
IC50 [5, 7]: > 29.6 µM
IC50 (P. falciparum strain K1; [13]): 14.1 µM

Nc1ccc(S(=O)(=O)c2ccc(N)cc2)cc1 [Dapsone]
IC50 (in vitro; IC50 Cytotox. L6): 204 µM
IC50 ([1]; read-out: IC50 T. cruzi): 220 µM
IC50 ([2]; read-out: IC50 T. b. rhod.): 353 µM
IC50 at 96 h [3, 9]: > 121 µM
IC50 [4, 10]: > 403 µM
IC50 [5, 11]: > 121 µM
IC50 (P. falciparum strain K1; [8]): 168 µM

OCCN(CCO)c1nc(N2CCCCC2)c2nc(N(CCO)CCO)nc(N3CCCCC3)c2n1 [Dipyridamole]
IC50 (in vitro; IC50 Cytotox. L6): 38.6 µM
IC50 ([1]; read-out: IC50 T. cruzi): 29.3 µM
IC50 ([2]; read-out: IC50 T. b. rhod.): 7.45 µM
IC50 at 96 h [3, 9]: > 59.5 µM
IC50 [4, 10]: 62 µM
IC50 [5, 11]: > 59.5 µM
IC50 (P. falciparum strain K1; [8]): 1.3 µM
Activity against P. falciparum (in words) (P. falciparum strain K1): selective activities

C[C@H]1c2cccc(O)c2C(=O)C2=C(O)[C@]3(O)C(=O)C(C(N)=O)=C(O)[C@@H](N(C)C)[C@@H]3[C@@H](O)[C@@H]21 [Doxycycline]
IC50 (in vitro; Cytotox. L6 IC50): 14.5 µM
IC50 ([1]; read-out: T. cruzi IC50): 39.1 µM
IC50 ([2]; read-out: T. b. rhod. IC50): 63.7 µM
MCC at 96 h [3, 6]: 67.5 µM
IC50 [4, 12]: 24.1 µM
IC50 [5, 7]: > 22.5 µM
IC50 (P. falciparum strain K1; [13]): 4.48 µM

CCn1cc(C(=O)O)c(=O)c2cc(F)c(N3CCNCC3)nc21 [Enoxacin]
IC50 (in vitro; Cytotox. L6 IC50): 25 µM
IC50 ([1]; read-out: T. cruzi IC50): 163 µM
IC50 ([2]; read-out: T. b. rhod. IC50): 113 µM
IC50 at 96 h [3, 6]: > 93.7 µM
IC50 [4, 12]: > 312 µM
IC50 [5, 7]: > 93.7 µM
IC50 (P. falciparum strain K1; [13]): 76.8 µM

CC[C@H]1OC(=O)[C@H](C)[C@@H](O[C@H]2C[C@@](C)(OC)[C@@H](O)[C@H](C)O2)[C@H](C)[C@@H](O[C@@H]2O[C@H](C)C[C@H](N(C)C)[C@H]2O)[C@](C)(O)C[C@@H](C)C(=O)[C@H](C)[C@@H](O)[C@]1(C)O [Erythromycine (Hydrate), Erythromycine]
IC50 (in vitro; IC50 Cytotox. L6): 92.2 µM
IC50 ([1]; read-out: IC50 T. cruzi): 114 µM
IC50 ([2]; read-out: IC50 T. b. rhod.): 72.1 µM
IC50 at 96 h [3, 9]: > 39.9 µM
IC50 [4, 10]: > 133 µM
IC50 [5, 11]: > 39.9 µM
IC50 (P. falciparum strain K1; [8]): 9.91 µM

CC(=O)OCC(CCn1cnc2cnc(N)nc21)COC(C)=O [Famciclovir]
IC50 (in vitro; IC50 Cytotox. L6): 180 µM
IC50 ([1]; read-out: IC50 T. cruzi): 207 µM
IC50 ([2]; read-out: IC50 T. b. rhod.): 225 µM
IC50 at 96 h [3, 9]: > 93.4 µM
IC50 [4, 10]: > 311 µM
IC50 [5, 11]: > 93.4 µM
IC50 (P. falciparum strain K1; [8]): > 156 µM

CC(=O)[C@H]1CC[C@H]2[C@@H]3CC[C@H]4C[C@](C)(O)CC[C@]4(C)[C@H]3CC[C@]12C [Ganaxolone]
IC50 (in vitro): 23.5 µM
IC50 ([1]; read-out: T. cruzi IC50): 65 µM
IC50 ([2]; read-out: T. b. rhod. IC50): 5.47 µM
IC50 at 96 h [3, 6]: > 90.2 µM
IC50 [4, 12]: 42.5 µM
IC50 [5, 7]: > 90.2 µM
IC50 (P. falciparum strain K1; [13]): > 15 µM

Nc1nc(O)c2ncn(COC(CO)CO)c2n1 [Ganciclovir]
IC50 (in vitro; IC50 Cytotox. L6): 179 µM
IC50 ([1]; read-out: IC50 T. cruzi): 240 µM
IC50 ([2]; read-out: IC50 T. b. rhod.): 252 µM
IC50 at 96 h [3, 9]: > 118 µM
IC50 [4, 10]: > 392 µM
IC50 [5, 11]: > 118 µM
IC50 (P. falciparum strain K1; [8]): > 196 µM

COc1ccc(Cl)cc1C(=O)NCCc1ccc(S(=O)(=O)NC(=O)NC2CCCCC2)cc1 [Glybenclamide]
IC50 (in vitro): 116 µM
IC50 ([1]; read-out: T. cruzi IC50): 93.9 µM
IC50 ([2]; read-out: T. b. rhod. IC50): 87.7 µM
IC50 at 96 h [3, 6]: > 60.7 µM
IC50 [4, 12]: 9.8 µM
IC50 [5, 7]: > 60.7 µM
IC50 (P. falciparum strain K1; [13]): 38.3 µM

COC1=CC(=O)C[C@@H](C)[C@]12Oc1c(Cl)c(OC)cc(OC)c1C2=O [Griseofulvin]
IC50 (in vitro; Cytotox. L6 IC50): 20.5 µM
IC50 ([1]; read-out: T. cruzi IC50): 87.3 µM
IC50 ([2]; read-out: T. b. rhod. IC50): 40 µM
IC50 at 96 h [3, 6]: > 85 µM
IC50 [4, 12]: 87 µM
IC50 [5, 7]: > 85 µM
IC50 (P. falciparum strain K1; [13]): 75.1 µM

CC(C)(C)NC(=O)[C@@H]1CN(Cc2cccnc2)CCN1C[C@@H](O)C[C@@H](Cc1ccccc1)C(=O)N[C@H]1c2ccccc2C[C@H]1O [Indinavir (Sulfate), Indinavir]
IC50 (in vitro): > 141 µM
IC50 ([1]; read-out: IC50 T. cruzi): 93.5 µM
IC50 ([2]; read-out: IC50 T. b. rhod.): 48.2 µM
IC50 at 96 h [3, 9]: > 42.3 µM
IC50 [4, 10]: > 141 µM
IC50 [5, 11]: > 42.3 µM
IC50 (P. falciparum strain K1; [8]): 6.03 µM

NNC(=O)c1ccncc1 [Isoniazide]
IC50 (in vitro; IC50 Cytotox. L6): 602 µM
IC50 ([1]; read-out: IC50 T. cruzi): 383 µM
IC50 ([2]; read-out: IC50 T. b. rhod.): > 729 µM
IC50 at 96 h [3, 9]: > 219 µM
IC50 [4, 10]: > 729 µM
IC50 [5, 11]: > 219 µM
IC50 (P. falciparum strain K1; [8]): 246 µM
